The values that follow come from US20090215640A1, “METHODS FOR IDENTIFYING LIGANDS FOR STEM CELLS AND CELLS DERIVED THEREFROM” (priority 2005, published 2009).

The target of assay [1] is T1, CRIP2 (also known as heart LIM protein (Hlp)) (Mus musculus, UniProt Q9DCT8).
T1 sequence (Q9DCT8 1-208): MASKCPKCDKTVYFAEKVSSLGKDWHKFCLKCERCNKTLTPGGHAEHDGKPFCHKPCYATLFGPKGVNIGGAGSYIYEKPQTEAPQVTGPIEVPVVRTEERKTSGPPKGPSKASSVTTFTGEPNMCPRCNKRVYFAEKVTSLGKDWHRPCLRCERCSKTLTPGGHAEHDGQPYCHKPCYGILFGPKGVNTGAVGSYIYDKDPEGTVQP
Particulars: Zhang et al., Circulation 2005; cited from earlier work.

The next assay relates to hESCs. Nature of the assay: Binding and internalization of mouse selected peptide phage into hESCs. Particulars: subpopulation of hESCs. It counts as cell-based, human.
Assay [2] concerns adult heart capillaries and endocardium. Conditions: Zhang et al., Circulation 2005; cited from earlier work.

Turning to CRPPR*, in assay [1], the “Binding to CRIP2” value was “binds to CRIP2”. Also, the “Binding and internalization into hESCs” value in the assay on hESCs is “binds and internalizes into a subpopulation of hESCs”. In addition, in assay [2], the “Binding to adult heart capillaries and endocardium” value was “known to bind to adult heart capillaries and endocardium”.
